Laboratory results from ChEMBL document CHEMBL5543109, “Novel β-Hairpin Antimicrobial Peptide Containing the β-Turn Sequence of -NG- and the Tryptophan Zippers Facilitate Self-Assembly into Nanofibers, Exhibiting Excellent Antimicrobial Performance” (J Med Chem, 2024).
≈ marks a conversion by molar mass, not a printed value. Calls of active or inactive are those of the source. The rule behind the calls is not given here.

Tests used:
Escherichia coli [1] = assay: Bactericidal activity against Escherichia coli ATCC 25922 incubated for 18 hrs by broth microdilution method; type: functional
Staphylococcus aureus [2] = assay: Antibacterial activity against Staphylococcus aureus at 2 times MIC preincubated for 1 hr with chymotrypsin followed by enzyme inactivation and bacterial addition and measured after 18 hrs; type: functional; conditions: time 19 hrs
Pseudomonas aeruginosa [3] = assay: Antibacterial activity against Pseudomonas aeruginosa incubated for 18 hrs in presence of KCl by broth microdilution method; type: functional, organism-based
Pseudomonas aeruginosa [4] = assay: Antibacterial activity against Pseudomonas aeruginosa incubated for 18 hrs in presence of FeCl3 by broth microdilution method; type: functional, organism-based
Staphylococcus aureus [5] = assay: Antibacterial activity against Staphylococcus aureus incubated for 18 hrs in presence of KCl by broth microdilution method; type: functional, organism-based
Staphylococcus aureus [6] = assay: Antibacterial activity against Staphylococcus aureus incubated for 18 hrs in presence of MgCl2 by broth microdilution method; type: functional, organism-based
Cell membrane [7] = assay: Induction of outer membrane permeabilization in Escherichia coli within 1 min by NPN-dye based assay; type: cell membranes
Cell membrane [8] = assay: Induction of inner membrane permeabilization in Escherichia coli ML-35 […] measured every 5 mins for 120 mins by ONPG dye based assay; type: cell membranes
Cell membrane [9] = assay: Induction of cytoplasmic membrane depolarization in Staphylococcus aureus at 0.5 times MIC by DiSC3-5 dye based fluorescence method; type: cell membranes
Pseudomonas aeruginosa [10] = assay: Induction of morphological change in Pseudomonas aeruginosa assessed as pore formation at 2 times MIC incubated for 30 mins by SEM analysis; type: functional, organism-based
Cell membrane [11] = assay: Induction of cell membrane disruption in Escherichia coli assessed as PI uptake at 4 times MIC incubated for 2 hrs by PI staining based flow cytometry analysis (reference value: 11.9%); type: cell membranes
Staphylococcus aureus [12] = assay: Additive antibacterial activity against methicillin resistant Staphylococcus aureus 75 assessed as fractional inhibitory concentration index incubated for 18 hrs in presence of ciprofloxacin by checkerboard assay; type: functional
Staphylococcus aureus [13] = assay: Additive antibacterial activity against methicillin resistant Staphylococcus aureus assessed as fractional inhibitory concentration index incubated for 18 hrs in presence of ciprofloxacin by checkerboard assay; type: functional
Staphylococcus aureus [14] = assay: Additive antibacterial activity against Staphylococcus aureus assessed as fractional inhibitory concentration index incubated for 18 hrs in presence of ciprofloxacin by checkerboard assay; type: functional
Staphylococcus aureus [15] = assay: Synergistic antibacterial activity against Staphylococcus aureus 794 assessed as fractional inhibitory concentration index incubated for 18 hrs in presence of cefotaxime by checkerboard assay; type: functional
Staphylococcus aureus [16] = assay: Additive antibacterial activity against Staphylococcus aureus 125 assessed as fractional inhibitory concentration index incubated for 18 hrs in presence of ciprofloxacin by checkerboard assay; type: functional
Escherichia coli [17] = assay: Synergistic antibacterial activity against Escherichia coli assessed as fractional inhibitory concentration index incubated for 18 hrs in presence of rifampin by checkerboard assay; type: functional
Staphylococcus aureus [18] = assay: Synergistic antibacterial activity against rifampicin resistant Staphylococcus aureus assessed as fractional inhibitory concentration index incubated for 18 hrs in presence of rifampin by checkerboard assay; type: functional
Staphylococcus aureus [19] = assay: Additive antibacterial activity against Staphylococcus aureus 125 assessed as fractional inhibitory concentration index incubated for 18 hrs in presence of kanamycin by checkerboard assay; type: functional
Staphylococcus aureus [20] = assay: Additive antibacterial activity against Staphylococcus aureus 125 assessed as fractional inhibitory concentration index incubated for 18 hrs in presence of streptomycin by checkerboard assay; type: functional
Staphylococcus aureus [21] = assay: Additive antibacterial activity against Staphylococcus aureus 794 assessed as fractional inhibitory concentration index incubated for 18 hrs in presence of gentamycin by checkerboard assay; type: functional
Staphylococcus aureus [22] = assay: Additive antibacterial activity against Staphylococcus aureus 125 assessed as fractional inhibitory concentration index incubated for 18 hrs in presence of gentamycin by checkerboard assay; type: functional
Staphylococcus aureus [23] = assay: Synergistic antibacterial activity against methicillin resistant Staphylococcus aureus 113 assessed as fractional inhibitory concentration index incubated for 18 hrs in presence of bacitracin by checkerboard assay; type: functional
Klebsiella pneumoniae = assay: […] antibacterial activity against Klebsiella pneumoniae assessed as fractional inhibitory concentration index incubated for 18 hrs in presence of polymyxin B by checkerboard assay; type: functional
[24] = Acute toxicity in mouse assessed as mortality rate at 200 mg/kg, ip by karber method; type: organism-based; conditions: in vivo, read-out: Activity
Staphylococcus aureus [25] = assay: Antibacterial activity against Staphylococcus aureus 794 infected in BALB/c mouse skin wound infection model assessed as wound healing at 1 mg/ml, ip pre-infected with bacteria for 24 hrs followed by compound addition and measured on day 4; type: functional, organism-based; conditions: time 4.0 day
Staphylococcus aureus [26] = assay: Antibacterial activity against Staphylococcus aureus 794 infected in BALB/c mouse skin wound infection model assessed as wound healing at 1 mg/ml, ip pre-infected with bacteria for 24 hrs followed by compound addition and measured on day 11; type: functional; conditions: time 11 day
[27] = Toxicity in BALB/c mouse infected with Staphylococcus aureus 794 assessed as increase in hair follicles at 1 mg/ml, ip pre-infected with bacteria for 24 hrs followed by compound addition and measured after 13 days by H and E staining based histopathological analysis; type: organism-based; conditions: in vivo, 312 h, time 13 day
Escherichia coli [28] = assay: Antibacterial activity against Escherichia coli incubated for 18 hrs by broth microdilution method; type: functional
Escherichia coli [29] = assay: Antibacterial activity against kanamycin resistant Escherichia coli incubated for 18 hrs by broth microdilution method; type: functional

Compound: NCCCC[C@@H](NC(=O)[C@H](N)Cc1c[nH]c2ccccc12)C(=O)N[C@H](Cc1c[nH]c2ccccc12)C(=O)N[C@H](CCCCN)C(=O)N[C@H](Cc1c[nH]c2ccccc12)C(=O)N[C@@H](CC(N)=O)C(=O)NCC(=O)N[C@H](Cc1c[nH]c2ccccc12)C(=O)N[C@H](CCCCN)C(=O)N[C@H](Cc1c[nH]c2ccccc12)C(=O)N[C@H](CCCCN)C(=O)N[C@H](Cc1c[nH]c2ccccc12)C(N)=O
- MBC (Escherichia coli [1]): 8 µM (≈ 14.5 µg/mL)
- Activity (Staphylococcus aureus [2]): 100%
- Activity (Pseudomonas aeruginosa [3]): Active
- Activity (Pseudomonas aeruginosa [4]): Active
- Activity (Staphylococcus aureus [5]): Active
- Activity (Staphylococcus aureus [6]): Active
- Activity (Cell membrane [7]): Dose-Dependent Effect
- Activity (Cell membrane [8]): Dose-Dependent Effect
- Activity (Cell membrane [9]): inactive
- Activity (Pseudomonas aeruginosa [10]): Active
- Activity (Cell membrane [11]): 92.8%
- fractional inhibitory concentration index (FICI) (Staphylococcus aureus [12]): 0.563
- fractional inhibitory concentration index (FICI) (Staphylococcus aureus [13]): 0.563
- fractional inhibitory concentration index (FICI) (Staphylococcus aureus [14]): 1
- fractional inhibitory concentration index (FICI) (Staphylococcus aureus [15]): 0.313
- fractional inhibitory concentration index (FICI) (Staphylococcus aureus [16]): 1
- fractional inhibitory concentration index (FICI) (Escherichia coli [17]): 0.375
- fractional inhibitory concentration index (FICI) (Staphylococcus aureus [18]): 0.375
- fractional inhibitory concentration index (FICI) (Staphylococcus aureus [19]): 0.563
- fractional inhibitory concentration index (FICI) (Staphylococcus aureus [20]): 1
- fractional inhibitory concentration index (FICI) (Staphylococcus aureus [21]): 0.563
- fractional inhibitory concentration index (FICI) (Staphylococcus aureus [22]): 0.563
- fractional inhibitory concentration index (FICI) (Staphylococcus aureus [23]): 0.5
- fractional inhibitory concentration index (FICI) (Klebsiella pneumoniae): 0.375
- mortality [24]: 20%
- Activity (Staphylococcus aureus [25]): inactive
- Activity (Staphylococcus aureus [26]): 100%
- Activity [27]: Toxic
- MIC (Escherichia coli [28]): 8 µM (≈ 14.5 µg/mL)
- MIC (Escherichia coli [29]): 16 µM (≈ 29.1 µg/mL)
